From PubChem BioAssay (NCI)
Several values for one entry are separate records, joined by “and”; a condition that tells them apart may be missing. Equal entries are not always repeated.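 Dose response: 5 concentrations. Exposure: 48 h. Format: 96-well plates. Endpoint: linear interpolation; highest concentration if not reached. GI50 = concentration required for 50% inhibition of growth. TGI: total growth inhibition.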

What was measured:
Assay in all cases: inhibition of tumour cell growth, NCI panel, 48 h
786-0 renal = tested on: 786-0 renal
MOLT-4 leukemia = tested on: MOLT-4 leukemia
LXFL 529 NSCLC = tested on: LXFL 529 NSCLC
A549 NSCLC = tested on: A549 NSCLC
CCRF-CEM leukemia = tested on: CCRF-CEM leukemia
M19-MEL melanoma = tested on: M19-MEL melanoma
OVCAR-5 ovarian = tested on: OVCAR-5 ovarian
MDA-MB-231 breast = tested on: MDA-MB-231 breast
UACC-257 melanoma = tested on: UACC-257 melanoma
COLO 205 colon = tested on: COLO 205 colon

Row | Structure (SMILES) | TGI (786-0 renal) [µM] | TGI (MOLT-4 leukemia) [µM] | TGI (LXFL 529 NSCLC) [µM] | TGI (A549 NSCLC) | TGI (CCRF-CEM leukemia) | TGI (M19-MEL melanoma) [µM] | GI50 (786-0 renal) [µM] | GI50 (OVCAR-5 ovarian) [µM] | TGI (OVCAR-5 ovarian) | GI50 (MOLT-4 leukemia) | GI50 (MDA-MB-231 breast) [µM] | TGI (MDA-MB-231 breast) [µM] | GI50 (UACC-257 melanoma) [µM] | TGI (UACC-257 melanoma) | GI50 (COLO 205 colon) [µM] | TGI (COLO 205 colon) | GI50 (A549 NSCLC) [µM] | GI50 (CCRF-CEM leukemia) [µM]
1 | C/C=C1\CCC2c3[nH]c4ccccc4c3CCN2C1 (centres undefined) | > 100 | > 100 | > 100 | > 100 µM | > 100 µM | > 100 |  |  |  |  |  |  |  |  |  |  |  | 
2 | CC(=O)/C(=C\c1c(-c2ccccc2)[nH]c2ccccc12)S(=O)(=O)c1ccccc1 | 3.44 | 6.39 |  | 41.9 µM | 4.78 µM |  | 1.62 | 2.01 | 5.46 µM | 1.35 µM | 1.74 | 19.2 | 2.23 | 8.58 µM | 1.54 | 5.62 µM | 6.73 | 1.4
3 | COC[C@@H](N=CN1CCc2cc(OC)c(OC)cc2C1)C(C)(C)C | > 100 | > 100 | > 100 | > 100 µM | > 100 µM | > 100 |  |  |  |  |  |  |  | > 100 µM |  | > 100 µM |  | 
4 | COc1ccc2nccc(/C=C/c3ccnc4ccc(OC)cc34)c2c1 | > 100 | > 100 |  | > 100 µM | > 53.3 µM |  | > 100 | > 82.2 | > 100 µM | > 55.1 µM | > 41.5 | > 61.6 | > 100 | > 100 µM | > 100 | > 100 µM | > 100 | > 38.9
5 | C[C@]12CC[C@@H]3c4ccc(O)cc4CC[C@H]3[C@@H]1CC[C@@H]2NS(=O)(=O)c1ccc2ccccc2c1 | 8.9 | > 100 |  | 13.2 µM | > 100 µM |  | 2.96 | 3.4 | 13.4 µM | 3.37 µM | 1.81 | 4.68 | 3.3 | 17.6 µM | 1.94 | 3.37 µM | 3.24 | 2.94
6 | COc1ccc2c(c1)CCN1C3=C(CCC3)C(=O)C[C@@H]21 | > 100 | > 100 | > 100 | > 100 µM | > 100 µM | > 100 |  |  | > 100 µM |  |  |  |  | > 100 µM |  | > 100 µM |  | 
7 | CCCC#CCOC(=O)c1cc([N+](=O)[O-])cc([N+](=O)[O-])c1 | > 100 | > 100 |  | > 100 µM | > 100 µM |  |  |  | > 100 µM |  |  | > 100 |  | > 100 µM |  | > 100 µM |  | 
8 | COc1cc2c(cc1OC)[C@@H]([C@H](O)c1ccccc1)NCC2 | > 100 | > 100 | > 100 | > 100 µM | > 100 µM | > 100 |  |  | > 100 µM |  |  |  |  | > 100 µM |  | > 100 µM |  | 
9 | Cc1cn2c(/C=N/N=C(N)N)c(-c3ccsc3)nc2s1 | 19.7 | > 100 |  | 34.7 µM | 6.21 µM |  | 5.89 | 15.1 | 28.7 µM | > 100 µM | 3.94 | 17.1 | 18.7 | 35 µM | 3.18 | 15 µM | 17.1 | 2.54
10 | Nc1ncnc2nn(C3OC(CO)C(O)C3O)nc12 (centres undefined) | > 100 | > 66.2 |  | > 64 µM | > 67 µM |  |  |  | > 95.3 µM |  |  | > 25.2 |  | > 87.1 µM |  | 15.8 µM |  | 
11 | C[C@@](O)(/C=C/[C@H]1CC=CC(=O)O1)[C@@H](C[C@@H](O)\C=C/C=C\C=C\CO)OP(=O)(O)O | 20.2 |  |  | 49.6 µM and 57 µM | 335 µM and 34.1 µM | 25.6 |  | 11.5 | 19.1 µM and 15 µM | 13.4 µM and 3.71 µM |  | 138 | 7.2 | 17.6 µM and 14.6 µM |  | 18.2 µM and 18.7 µM | 13.1 | 3.52
12 | COc1ccc2[nH]c(O)c(/C=c3/ccc4c(c3)N=C(c3ccc(F)cc3)N=4)c2c1 | 3.26 | > 100 |  | > 100 µM | > 100 µM |  | 1.69 | 7.1 | 97.9 µM | 13.9 µM | 2.25 | 6.04 | 3.92 | 15.3 µM | 5.13 | > 100 µM | 3.11 | 4.14
13 | O=C1CCC2(c3ccccc3)Nc3ccc(Cl)cc3N12 (centres undefined) | > 100 | > 100 | > 100 | > 100 µM | > 100 µM | > 100 |  |  | > 100 µM |  |  |  |  | > 100 µM |  | > 100 µM |  | 
14 | CC/C(CC(=O)CCC(=O)Nc1ccc(C)c(C)c1)=N\NC(=O)C(N)=O | > 100 | > 100 | > 100 | > 100 µM | > 100 µM | > 100 |  |  | > 100 µM |  |  |  |  | > 100 µM |  | > 100 µM |  | 
